Assay results reported in ChEMBL document CHEMBL1201862, “PubChem BioAssay data set” (2004).
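In this assay, cells in 96-well plates receive the compound at five concentrations for 48 hours. Endpoints are linearly interpolated between the surrounding concentrations. Here, GI50 denotes the concentration required for 50% inhibition of growth.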 Activity calls are given as the source filed them. Cut-off read from the data, not from the text of the source: active = GI50 up to about 1.1 µM and inactive = higher.

Legend:
Assay in all cases: NCI anticancer screen, dose series, 48 h
NCI-H460 = tested on: NCI-H460
RPMI-8226 = tested on: RPMI-8226
SK-MEL-2 = tested on: SK-MEL-2
HCT-116 = tested on: HCT-116
OVCAR-3 = tested on: OVCAR-3
SNB-75 = tested on: SNB-75
MDA-N = tested on: MDA-N
MDA-MB-435 = tested on: MDA-MB-435
NCI/ADR-RES = tested on: NCI/ADR-RES
DU-145 = tested on: DU-145
MDA-MB-231 = tested on: MDA-MB-231
RXF 393 = tested on: RXF 393
KM12 = tested on: KM12
LOX IMVI = tested on: LOX IMVI
M14 = tested on: M14
HOP-92 = tested on: HOP-92
K562 = tested on: K562
SR = tested on: SR
HOP-62 = tested on: HOP-62
Malme-3M = tested on: Malme-3M

Row | Compound | GI50 (NCI-H460) | GI50 (RPMI-8226) | GI50 (SK-MEL-2) | GI50 (HCT-116) | GI50 (OVCAR-3) | GI50 (SNB-75) | GI50 (MDA-N) | GI50 (MDA-MB-435) | GI50 (NCI/ADR-RES) | GI50 (DU-145) | GI50 (MDA-MB-231) | GI50 (RXF 393) | GI50 (KM12) | GI50 (LOX IMVI) | GI50 (M14) | GI50 (HOP-92) | GI50 (K562) | GI50 (SR) | GI50 (HOP-62) | GI50 (Malme-3M)
1 | COc1ccc2[nH]c(C(=O)N3CC(CCl)c4c3cc(N)c3ccccc43)cc2c1 (configuration not stated) | < 0.01 µM (active) | 0.0122 µM (active) | 0.0122 µM (active) | < 0.01 µM (active) | 0.0139 µM (active) | < 0.01 µM (active) | 0.0112 µM (active) | 0.0118 µM (active) | < 0.01 µM (active) | < 0.01 µM (active) | < 0.0204 µM (active) | < 0.01 µM (active) | < 0.01 µM (active) | < 0.01 µM (active) | < 0.01 µM (active) | < 0.018 µM (active) | < 0.01 µM (active) | < 0.01 µM (active) | < 0.01 µM (active) | 
2 | COc1ccc2oc3c(ccc[n+]3C)c(=O)c2c1 | > 100 µM (inactive) |  | > 100 µM (inactive) | > 100 µM (inactive) | > 100 µM (inactive) | > 100 µM (inactive) | > 100 µM (inactive) | > 100 µM (inactive) | > 100 µM (inactive) | > 100 µM (inactive) | > 100 µM (inactive) | > 100 µM (inactive) | > 100 µM (inactive) | > 100 µM (inactive) | > 100 µM (inactive) | > 100 µM (inactive) | > 100 µM (inactive) | > 100 µM (inactive) | > 100 µM (inactive) | > 100 µM (inactive)
3 | COC1=CC(=O)c2c(c(COC(C)=O)cn2C)C1=O | 0.115 µM (active) | 0.211 µM (active) | 0.163 µM (active) | 0.0347 µM (active) | 0.158 µM (active) | 0.308 µM (active) | 0.0942 µM (active) | 0.13 µM (active) | 0.061 µM (active) | 0.0457 µM (active) | 0.389 µM (active) | 0.0809 µM (active) | 0.0962 µM (active) | 0.0887 µM (active) | 0.0632 µM (active) | 0.291 µM (active) | 0.15 µM (active) | 0.211 µM (active) |  | 0.0343 µM (active)
4 | O=c1cnn(C/C=C/CP(=O)(O)O)c(=O)[nH]1 | > 100 µM (inactive) | > 100 µM (inactive) | > 100 µM (inactive) |  | > 100 µM (inactive) | > 100 µM (inactive) | > 100 µM (inactive) | > 100 µM (inactive) | > 100 µM (inactive) | > 100 µM (inactive) | > 100 µM (inactive) | > 100 µM (inactive) | > 100 µM (inactive) | > 100 µM (inactive) | > 100 µM (inactive) | > 100 µM (inactive) | > 100 µM (inactive) | > 100 µM (inactive) | > 100 µM (inactive) | > 100 µM (inactive)
5 | COc1ccc2c(=O)c(O)c(-c3ccc(OC)c(OC)c3)oc2c1 | 3.35 µM (inactive) | 4.09 µM (inactive) |  | 4.97 µM (inactive) | 2.84 µM (inactive) |  | > 100 µM (inactive) | 4.51 µM (inactive) | 2.23 µM (inactive) | 4.04 µM (inactive) | 4.8 µM (inactive) |  |  | 5.58 µM (inactive) | 5.45 µM (inactive) | 4.18 µM (inactive) | 4.53 µM (inactive) | 4.08 µM (inactive) | 3.98 µM (inactive) | 15.1 µM (inactive)
